# PMC8422859, “A Novel Oral Arginase 1/2 Inhibitor Enhances the Antitumor Effect of PD-1 Inhibition in Murine Experimental Gliomas by Altering the Immunosuppressive Environment” (Frontiers in Oncology, 2021)
# Tested on: glioma-associated CD11b+ cells
# Experiment: RNA-seq of CD11b+ cells from tumor-bearing hemispheres
# Assay type: in vivo, mouse
# Protocol: Immediately after sorting, CD11b^+ cells were centrifuged and lysed for further isolation of RNA using the RNeasy Plus Mini Kit (Qiagen, Germany). The integrity and quality of RNA were assessed on an Agilent 2100 Bioanalyzer with an RNA 6000 Pico Kit (Agilent Technologies, CA, USA). A total of 9 strand-specific RNA libraries were prepared for sequencing (2-3 biological replicates/treatment) using a KAPA Stranded mRNA-Seq Kit (Kapa Biosystems, MA, USA). Poly-A mRNAs were purified from 100 ng of total RNA using poly-T-oligo-magnetic beads (Kapa Biosystems, MA, USA). mRNAs were fragmented and a first-strand cDNA was synthesized using reverse transcriptase and random hexamers. […] Final libraries were analyzed using Bioanalyzer and Agilent DNA High Sensitivity chips (Agilent Technologies, Santa Clara, CA, USA) to confirm fragment sizes (~300 bp). Quantification was performed using a Quantus fluorometer and the QuantiFluor dsDNA System (Promega, Madison, Wisconsin, US). […]
# Illumina-specific adapters, short reads, and low quality 5’ and 3’ bases were filtered out in the FASTQ format files using Trimmomatic ([27]) tool (version 0.36). The resulting RNA sequencing reads were aligned to a reference mouse genome sequence (mm10) with STAR aligner ([28]) (version 2.6.1b) using the two pass Mode Basic option. […]
compound,measurement,value
CN(C)C[C@@H]1CC[C@@H](CCB(O)O)C[C@]1(N)C(=O)O [OAT-1746],differentially expressed genes versus CTR (padj<0.05),over 1800 genes
